One assay concerns the target T1, CYP2C19 (Homo sapiens, UniProt P33261).
T1 construct: from tissue; host or cells: human liver microsomes
The assay can be described thus: CYP inhibition assay, human liver microsomes, substrate S-mephenytoin. Type of assay: in vitro ADME. To be noted: human liver microsomes, 10 min incubation, LC-MS/MS; read-out: CYP Inhibition Activity (IC50/nM) CYP2C19. Put shortly:
(§1)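 Metabolite formation measured by LC-MS/MS after quench with cold acetonitrile, yielding % inhibition and IC50. Reactions ran 10 min at 37° C after NADPH addition, following 20 min pre-incubation of substrate pool and inhibitor with human liver microsomes.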
On the technique in general: Liver microsomes are a subcellular fraction often used to study metabolism.

In the next assay the target is T2, CYP3A4 (Homo sapiens, UniProt P08684).
T2 construct: from tissue; host or cells: human liver microsomes
The assay can be described thus: CYP inhibition assay, human liver microsomes, substrate midazolam. To be noted: human liver microsomes, 10 min incubation, LC-MS/MS; read-out: CYP Inhibition Activity (IC50/nM) CYP3A4. Type of assay: in vitro ADME. Put shortly:
as §1

The target in a further assay is T3, CYP1A2 (Homo sapiens, UniProt P05177).
T3 construct: from tissue; host or cells: human liver microsomes
T3 sequence (P05177 1-516): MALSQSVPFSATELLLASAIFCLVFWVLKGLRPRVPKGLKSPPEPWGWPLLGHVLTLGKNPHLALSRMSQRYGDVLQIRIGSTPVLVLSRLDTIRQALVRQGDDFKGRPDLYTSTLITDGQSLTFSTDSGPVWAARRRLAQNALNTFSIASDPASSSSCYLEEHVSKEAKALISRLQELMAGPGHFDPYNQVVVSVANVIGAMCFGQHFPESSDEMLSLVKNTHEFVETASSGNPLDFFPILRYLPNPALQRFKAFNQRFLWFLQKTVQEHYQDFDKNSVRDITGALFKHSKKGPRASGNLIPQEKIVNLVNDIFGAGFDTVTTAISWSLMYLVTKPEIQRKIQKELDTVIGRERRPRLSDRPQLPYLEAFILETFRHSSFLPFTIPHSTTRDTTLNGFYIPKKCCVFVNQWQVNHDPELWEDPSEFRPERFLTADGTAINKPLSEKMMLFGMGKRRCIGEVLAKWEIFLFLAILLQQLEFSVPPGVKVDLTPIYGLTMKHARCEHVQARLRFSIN
The assay can be described thus: CYP inhibition assay, human liver microsomes, substrate tacrine. Type of assay: in vitro ADME. To be noted: human liver microsomes, 10 min incubation, LC-MS/MS; read-out: CYP Inhibition Activity (IC50/nM) CYP1A2. Put shortly:
as §1

The target in the next assay is T4, CYP2C9 (Homo sapiens, UniProt P11712).
T4 construct: from tissue; host or cells: human liver microsomes
The assay can be described thus: CYP inhibition assay, human liver microsomes, substrate diclofenac. Type of assay: in vitro ADME. To be noted: human liver microsomes, 10 min incubation, LC-MS/MS; read-out: CYP Inhibition Activity (IC50/nM) CYP2C9. In a few lines:
as §1

For a further assay, the target named is SRPK1 (Homo sapiens, UniProt Q96SB4). The assay is described as follows: In vitro SRPK1 assay (Kinase-Glo). It counts as biochemical. A general note: Kinase-Glo measures the ATP left after a reaction by luminescence.
The target in the next assay is T5, CYP2D6 (Homo sapiens, UniProt P10635).
T5 construct: from tissue; host or cells: human liver microsomes
The assay is described as follows: biochemical. It counts as in vitro ADME. In a few lines: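 Read-out is LC-MS/MS of supernatant, giving % inhibition and IC50 relative to a no-inhibitor ACN/DMSO control. Compound and substrate pool were pre-incubated 20 min at 37° C with human liver microsomes (working stock 0.253 mg/mL) before a 10 min NADPH-driven reaction, quenched with cold ACN.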

T1 sequence (P33261 whole entry): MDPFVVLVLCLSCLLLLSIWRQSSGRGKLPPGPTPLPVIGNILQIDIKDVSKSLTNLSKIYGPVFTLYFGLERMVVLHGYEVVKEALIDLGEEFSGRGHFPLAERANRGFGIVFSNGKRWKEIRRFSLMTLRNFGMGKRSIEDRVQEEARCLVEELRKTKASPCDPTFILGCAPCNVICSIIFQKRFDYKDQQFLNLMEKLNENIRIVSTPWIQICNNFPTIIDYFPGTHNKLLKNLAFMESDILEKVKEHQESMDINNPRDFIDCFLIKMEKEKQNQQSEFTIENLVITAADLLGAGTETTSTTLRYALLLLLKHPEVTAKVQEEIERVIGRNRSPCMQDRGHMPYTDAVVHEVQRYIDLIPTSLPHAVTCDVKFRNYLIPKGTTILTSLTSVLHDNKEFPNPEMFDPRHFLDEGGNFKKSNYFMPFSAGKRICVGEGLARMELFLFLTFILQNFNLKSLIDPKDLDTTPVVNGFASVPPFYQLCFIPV
T2 sequence (P08684 whole entry): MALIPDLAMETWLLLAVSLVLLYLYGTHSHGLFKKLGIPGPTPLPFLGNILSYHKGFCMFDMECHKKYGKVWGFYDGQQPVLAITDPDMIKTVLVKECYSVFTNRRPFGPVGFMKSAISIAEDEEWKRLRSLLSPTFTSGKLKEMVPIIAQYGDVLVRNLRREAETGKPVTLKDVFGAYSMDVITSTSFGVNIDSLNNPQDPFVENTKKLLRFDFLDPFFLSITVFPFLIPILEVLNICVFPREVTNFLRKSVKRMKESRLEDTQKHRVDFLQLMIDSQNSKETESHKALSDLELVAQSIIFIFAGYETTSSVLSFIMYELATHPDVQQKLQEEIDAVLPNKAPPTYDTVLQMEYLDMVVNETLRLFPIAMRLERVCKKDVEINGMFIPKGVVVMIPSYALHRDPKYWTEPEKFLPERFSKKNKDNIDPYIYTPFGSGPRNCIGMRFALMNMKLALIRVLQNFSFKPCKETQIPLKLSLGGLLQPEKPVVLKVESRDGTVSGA
T4 sequence (P11712 whole entry): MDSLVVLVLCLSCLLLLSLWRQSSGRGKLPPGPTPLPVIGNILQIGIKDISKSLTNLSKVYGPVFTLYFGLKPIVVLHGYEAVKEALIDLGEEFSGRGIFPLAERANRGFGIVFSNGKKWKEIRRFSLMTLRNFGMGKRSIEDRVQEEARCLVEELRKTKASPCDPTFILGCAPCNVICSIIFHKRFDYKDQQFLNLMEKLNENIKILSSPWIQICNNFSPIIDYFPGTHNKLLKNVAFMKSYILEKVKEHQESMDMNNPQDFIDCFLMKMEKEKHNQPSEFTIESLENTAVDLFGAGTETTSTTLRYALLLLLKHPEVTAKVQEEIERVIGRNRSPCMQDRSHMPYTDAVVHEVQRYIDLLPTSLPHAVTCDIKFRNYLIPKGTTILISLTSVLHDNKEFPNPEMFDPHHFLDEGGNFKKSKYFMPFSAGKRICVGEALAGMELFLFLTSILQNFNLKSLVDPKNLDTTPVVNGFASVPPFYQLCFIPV
SRPK1, sequence (Q96SB4 whole entry, species assumed): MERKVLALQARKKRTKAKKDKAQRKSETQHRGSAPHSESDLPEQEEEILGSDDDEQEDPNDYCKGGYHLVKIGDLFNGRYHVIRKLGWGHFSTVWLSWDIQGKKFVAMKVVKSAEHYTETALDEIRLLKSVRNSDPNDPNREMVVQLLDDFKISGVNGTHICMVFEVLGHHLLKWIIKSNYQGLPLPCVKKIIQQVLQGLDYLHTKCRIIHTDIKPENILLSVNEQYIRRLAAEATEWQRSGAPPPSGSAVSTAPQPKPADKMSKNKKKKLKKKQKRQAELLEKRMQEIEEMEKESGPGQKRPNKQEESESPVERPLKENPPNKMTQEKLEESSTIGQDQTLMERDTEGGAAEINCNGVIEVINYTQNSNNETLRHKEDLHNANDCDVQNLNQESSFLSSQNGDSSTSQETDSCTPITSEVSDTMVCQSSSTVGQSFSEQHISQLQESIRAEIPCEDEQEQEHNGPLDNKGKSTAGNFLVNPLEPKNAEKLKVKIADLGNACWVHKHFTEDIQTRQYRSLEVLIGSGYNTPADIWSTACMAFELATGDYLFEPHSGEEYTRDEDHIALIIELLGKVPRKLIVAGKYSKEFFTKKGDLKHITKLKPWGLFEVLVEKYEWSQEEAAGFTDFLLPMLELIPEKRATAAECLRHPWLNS
T5 sequence (P10635 whole entry): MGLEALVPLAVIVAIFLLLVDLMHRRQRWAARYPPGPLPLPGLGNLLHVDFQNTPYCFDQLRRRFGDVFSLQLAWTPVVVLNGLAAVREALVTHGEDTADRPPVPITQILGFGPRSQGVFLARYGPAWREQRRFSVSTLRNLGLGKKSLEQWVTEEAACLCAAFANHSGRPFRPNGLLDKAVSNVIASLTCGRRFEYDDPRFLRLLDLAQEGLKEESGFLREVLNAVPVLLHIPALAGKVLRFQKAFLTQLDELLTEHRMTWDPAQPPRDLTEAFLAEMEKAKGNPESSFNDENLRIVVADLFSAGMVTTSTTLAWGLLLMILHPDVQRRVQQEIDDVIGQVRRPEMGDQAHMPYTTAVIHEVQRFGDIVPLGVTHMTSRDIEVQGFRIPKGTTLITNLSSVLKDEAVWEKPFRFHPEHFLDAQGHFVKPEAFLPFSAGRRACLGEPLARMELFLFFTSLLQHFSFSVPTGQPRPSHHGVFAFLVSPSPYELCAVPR

Turning to `CN(C)CC1(C)CCN(c2ccc(C(F)(F)F)cc2NC(=O)c2ccc(C3CCOCC3)o2)CC1` [Example 83, N-(2-(4-((dimethylamino)methyl)-4-methyl-piperidin-1-yl)-5-(trifluoromethyl)phenyl)-5-(tetrahydro-2H-pyran-4-yl)furan-2-carboxamide], the IC50 on CYP2C19 was > 30000 nM; at CYP3A4, 21000 nM; on CYP1A2, > 30000 nM; at CYP2C9, 24300 nM; against SRPK1 it was 3.2 nM; at CYP2D6 it was 3.2 µM.

On to `CN(C)C(=O)C1(C)CCN(c2ccc(Cl)cc2NC(=O)c2ccc(C3CCOCC3)o2)CC1` [Example 84, 1-(4-chloro-2-(5-(tetrahydro-2H-pyran-4-yl)furan-2-carboxamido)phenyl)-N,N,4-trimethyl-piperidine-4-carboxamide], for which the IC50 is 8000 nM at CYP2C19; 2200 nM on CYP3A4; > 30000 nM at CYP1A2; 600 nM on CYP2C9; 23 nM at SRPK1; 12.4 µM against CYP2D6.

On to `COc1ccc(N2CCC(C)(C(=O)N(C)C)CC2)c(NC(=O)c2ccc(C3CCOCC3)o2)c1` [Example 85, 1-(4-methoxy-2-(5-(tetrahydro-2H-pyran-4-yl)furan-2-carboxamido)phenyl)-N,N,4-trimethyl-piperidine-4-carboxamide], for which the IC50 on CYP2C19 is 21700 nM; on CYP3A4 it was 20700 nM; at CYP1A2, > 30000 nM; at CYP2C9, 800 nM; at SRPK1 it was 43 nM; on CYP2D6, > 30 µM.

For the compound `CN(C)C(=O)C1(C)CCN(c2ccc(C3CC3)cc2NC(=O)c2ccc(C3CCOCC3)o2)CC1` [Example 86, 1-(4-cyclopropyl-2-(5-(tetrahydro-2H-pyran-4-yl)furan-2-carboxamido)phenyl)-N,N,4-trimethyl-piperidine-4-carboxamide], the IC50 on CYP2C19 is 4100 nM; at CYP3A4, 1100 nM; on CYP1A2, > 30000 nM; at CYP2C9 it was 200 nM; on SRPK1, 9 nM; at CYP2D6, 19.2 µM.

`Cc1ccc(N2CCC(C)(C(=O)N(C)C)CC2)c(NC(=O)c2ccc(C3CCOCC3)o2)c1` [Example 87, N,N,4-trimethyl-1-(4-methyl-2-(5-(tetrahydro-2H-pyran-4-yl)furan-2-carboxamido)phenyl)piperidine-4-carboxamide]: the IC50 is 14300 nM at CYP2C19; 5900 nM on CYP3A4; > 30000 nM at CYP1A2; 800 nM on CYP2C9; 27 nM at SRPK1; > 30 µM against CYP2D6.

Consider `CC1(C(=O)N2CCCC2)CCN(c2ccc(C(F)(F)F)cc2NC(=O)c2ccc(C3CCOCC3)o2)CC1` [Example 88, N-(2-(4-methyl-4-(pyrrolidine-1-carbonyl)-piperidin-1-yl)-5-(trifluoromethyl)-phenyl)-5-(tetrahydro-2H-pyran-4-yl)furan-2-carboxamide], for which the IC50 on CYP2C19 is 4600 nM; at CYP3A4, 1000 nM; on CYP1A2, > 30000 nM; at CYP2C9, 300 nM; against SRPK1, 11 nM; at CYP2D6, 10.3 µM.

For `CC1(C(=O)N2CCCCC2)CCN(c2ccc(C(F)(F)F)cc2NC(=O)c2ccc(C3CCOCC3)o2)CC1` [Example 89, N-(2-(4-methyl-4-(piperidine-1-carbonyl)-piperidin-1-yl)-5-(trifluoromethyl)phenyl)-5-(tetrahydro-2H-pyran-4-yl)furan-2-carboxamide], the IC50 on CYP2C19 is 14100 nM; on CYP3A4, 2800 nM; on CYP1A2, > 30000 nM; on CYP2C9, 2500 nM; against SRPK1, 14 nM; against CYP2D6 it was 18.9 µM.

Values taken from US11420969B2 (Exonate Limited, priority 2017, dated 2022).
